Source: patent US7371730B2, “Crystals of glucopyranosyloxybenzyl benzene derivative” (Kissei Pharmaceutical Co., Ltd., priority 2002, dated 2008)

Assay: Stability test (storage; HPLC residual percentage and X-ray powder diffraction)
Format: physicochemical
Details: storage 40° C./75% RH, 2 months, stopper tightly, and 60° C.
Protocol: Stability tests were carried out under the following conditions for crystalline forms α and β. Residual percentages of test substances were determined by HPLC, and changes in crystalline form were examined by X-ray powder diffraction analysis.
• detection; 225 nm • column; Inertsil ODS-3 • column temperature; 30° C. • mobile phase; 0.02 mol/L phosphate buffer (pH 3.0): acetonitrile=58:42→30:70 • flow rate; 1.0 mL/min. Storage conditions: • 1) 40° C./75% RH, 2 months, stopper tightly • 2) 60° C., 2 months, stopper tightly

- changes in crystalline form (X-ray powder diffraction analysis): no change
- residual percentage of test substance (HPLC): no change
SMILES: CCOC(=O)OC[C@H]1O[C@@H](Oc2ccccc2Cc2ccc(OC)cc2)[C@H](O)[C@@H](O)[C@@H]1O [crystalline form α, 2-(4-methoxybenzyl)phenyl 6-O-ethoxycarbonyl-β-D-glucopyranoside]
